Reference: patent US8835445B2, “Dihydrofolate reductase inhibitors” (Trius Therapeutics, Inc., priority 2010, dated 2014)
In brackets after ≈: the same amount, converted by molar mass. Read-outs that look alike come from different tables or passages of the source.

Columns and labels:
S. aureus = experiment: Antibacterial activity (MIC), whole-cell bacterial growth inhibition; assay type: cell-based, Staphylococcus aureus; conditions: for MIC: Staphylococcus aureus
Excerpt: Antibacterial activity as measured by the minimal inhibitory concentrations (MIC) and minimal bactericidal concentrations of compounds are well known (see., e.g., National Committee for Clinical Laboratory Standards 2000 Performance standards for antimicrobial disk susceptibility tests: approved standard, 7th ed. M2-A7, vol. 20, no. 1, Committee for Clinical Laboratory Standards, Wayne, Pa.) In vitro testing for antibacterial activity may be accomplished through use of a whole-cell bacterial growth inhibition assay. For example, an […] assay identifies a substance that inhibits bacterial growth. Microtiter plates are prepared with serial dilutions of the test compound, adding to the preparation a given amount of growth substrate, and providing a preparation of bacteria. Inhibition of bacterial growth is determined, for example, by observing changes in optical densities of the bacterial cultures. Inhibition of bacterial growth is determined, for example, by comparing (in the presence and absence of a test compound) the rate of growth or the absolute growth of bacterial cells. Inhibition includes a reduction of one of the above measurements by at least 20%.

human DHFR = human DHFR (Homo sapiens (Human), UniProt P00374); experiment: DHFR enzymatic inhibition (Ki), human DHFR; assay type: biochemical
S. aurues DHFR = S. aurues DHFR (Staphylococcus aureus, UniProt P0A017); experiment: biochemical; assay type: biochemical
[1] = S. aureus in 20% serum, read-out: MIC in μg/ml S. aureus in 20% serum
[2] = S. aureus, read-out: MIC in μg/ml S. aureus

Chain of human DHFR (P00374 whole entry): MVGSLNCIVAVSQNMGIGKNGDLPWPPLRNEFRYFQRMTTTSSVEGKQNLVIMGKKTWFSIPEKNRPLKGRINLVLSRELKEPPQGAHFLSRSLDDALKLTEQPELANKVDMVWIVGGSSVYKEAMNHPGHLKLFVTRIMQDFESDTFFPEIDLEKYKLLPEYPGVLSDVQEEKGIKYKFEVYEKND

Structure (SMILES)	MIC (S. aureus; [1])	MIC (S. aureus; [2])	Ki (human DHFR)	Ki (S. aurues DHFR; S. aureus DHFR)	MIC in μg/ml S. aureus (S. aureus; S. aureus)	MIC in μg/ml S. aureus in 20% serum (S. aureus; S. aureus in 20% serum)	Ki (S. aurues DHFR)
COc1ccc2nc(-c3ccco3)n(-c3ccc4c(N)nc(N)nc4c3)c2n1 [Compound 37]	0.5 µg/mL (≈ 1.34 µM)	0.25 µg/mL (≈ 0.67 µM)	797 nM	0.039 nM			
Cc1cc2nc(C3CC3)n(-c3ccc4c(N)nc(N)nc4c3)c2cc1C [Compound 15, 7-(2-cyclopropyl-5,6-dimethyl-1H-benzo[d]-imidazol-1-yl)quinazoline-2,4-diamine]	1 µg/mL (≈ 2.9 µM)	≤ 0.5 µg/mL	1160 nM	0.14 nM			
COc1cc(-c2cc3nc(N)nc(N)c3cc2C)c(Cl)cn1 [Compound 28, 7-(5-chloro-2-methoxypyridin-4-yl)-6-methylquin-azoline-2,4-diamine]	1 µg/mL (≈ 3.17 µM)	0.5 µg/mL (≈ 1.58 µM)	56 nM	0.72 nM			
Cc1cc2nc(-c3nccs3)n(-c3cc4nc(N)nc(N)c4cc3Cl)c2cc1C [Compound 34, 6-chloro-7-(5,6-dimethyl-2-(thiazol-2-yl)-1H-benzo[d]imidazol-1-yl)quinazoline-2,4-diamine]			8.8 nM	0.016 nM	≦0.125 μg/ml	2 µg/mL (≈ 4.74 µM)	
CCOc1ccc(C(=O)N(CC)CC)cc1-c1cc2nc(N)nc(N)c2cc1C [Compound 40, 3-(2,4-diamino-6-methylquinazolin-7-yl)-4-ethoxy-N,N-diethylbenzamide]	0.25 µg/mL (≈ 0.635 µM)	0.25 µg/mL (≈ 0.635 µM)	34 nM	0.025 nM			
Cc1cc2nc(-c3nccs3)n(-c3cc4nc(N)nc(N)c4cc3C)c2cc1C [Compound 26, 7-(5,6-dimethyl-2-(thiazol-2-yl)-1H-benzo[d]-imidazol-1-yl)-6-methylquin-azoline-2,4-diamine]	≤ 0.125 µg/mL	≤ 0.125 µg/mL	2.9 nM				0.03 nM
CC(=O)c1cccc(-c2cc3nc(N)nc(N)c3cc2C)c1 [Compound 7, 1-(3-(2,4-diamino-6-methylquinazolin-7-yl)-phenyl)ethanone]	1 µg/mL (≈ 3.42 µM)	0.5 µg/mL (≈ 1.71 µM)	26.3 nM	0.48 nM			
Cc1cc2c(N)nc(N)nc2cc1-c1cnc2[nH]ccc2c1 [Compound 27, 6-methyl-7-(1H-pyrrolo[2,3-b]pyridin-5-yl)quin-azoline-2,4-diamine]	4 µg/mL (≈ 13.8 µM)	4 µg/mL (≈ 13.8 µM)	235 nM	2.6 nM			
COc1ncc(-c2cc3nc(N)nc(N)c3cc2C)c(OC)n1 [Compound 29, 7-(2,4-dimethoxypyrimidin-5-yl)-6-methylquinazo-line-2,4-diamine]	0.5 µg/mL (≈ 1.6 µM)	0.5 µg/mL (≈ 1.6 µM)	54.7 nM	0.4 nM			
COC(=O)c1ccc2c(c1)nc(-c1nccs1)n2-c1ccc2c(N)nc(N)nc2c1 [Compound 32, methyl 1-(2,4-diaminoquinazolin-7-yl)-2-(thiazol-2-yl)-1H-benzo[d]imidazole-5-carboxylate]	2 µg/mL (≈ 4.79 µM)	0.25 µg/mL (≈ 0.599 µM)	53.1 nM	0.021 nM			
Cc1cc2c(N)nc(N)nc2cc1-c1c[nH]c2ccccc12 [Compound 41, 7-(1H-indol-3-yl)-6-methylquinazoline-2,4-diamine]	0.5 µg/mL (≈ 1.73 µM)	0.25 µg/mL (≈ 0.864 µM)	50.5 nM	0.11 nM			
Nc1nc(N)c2ccc(-c3ccccc3N)cc2n1 [Compound 2, 7-(2-aminophenyl)quinazoline-2,4-diamine]	8 µg/mL (≈ 31.8 µM)	8 µg/mL (≈ 31.8 µM)	3920 nM	15.3 nM			
Cc1cc2nc(-c3nccs3)n(-c3cc4nc(N)nc(N)c4cc3Cl)c2cc1C [Compound 25, 6-chloro-7-(5,6-dimethyl-2-(thiazol-2-yl)-1H-benzo[d]imidazol-1-yl)quinazoline-2,4-diamine]	1 µg/mL (≈ 2.37 µM)	≤ 0.125 µg/mL	7.6 nM	0.011 nM			
Cc1c(C(=O)OC(C)(C)C)nc(-c2cccs2)n1-c1ccc2c(N)nc(N)nc2c1 [Compound 39, tert-butyl 1-(2,4-diaminoquinazolin-7-yl)-5-methyl-2-thiophen-2-yl)-1H-imidazole-4-carboxylate]	2 µg/mL (≈ 4.73 µM)	1 µg/mL (≈ 2.37 µM)					
